How the values were obtained:
NCI-H69 tumor xenograft = assay: lung cancer (SCLC) xenograft model; format: in vivo, BALB/c Nude Mice; settings: for Anti-tumor effect: 600 mg/kg IP, hypoxic status confirmed, methanesulfonate, 600 mg/kg
Protocol: All animal models were established as xenograft model in BALB/c Nude Mice (6-8 weeks old, 17-23 grams, maintained in standard conditions and diet), following approved IACUC (Institutional Animal Care and Use Committees) protocols. Cpd.11 Ms was formulated using 2% dimethyl sulfoxide (DMSO in water for injection, starting from a Cpd.11 Ms main preparation (100-60 mg/ml in 2% DMSO in water for injection).
After tumor cell inoculation, the animals were checked daily for morbidity and mortality. Before commencement of treatment all animals were weighed and the tumor volumes were measured using a caliper. The treatments were started when the mean tumor size reached approx. 250 mm^3. […] The date of tumor cell inoculation was denoted as day 0 (thus injections were performed at day 1, 2, 3, 4, and 5). At the time of routine monitoring, the animals were checked for any effects of tumor growth and treatments on normal behavior such as mobility, visual estimation of food and water consumption, body weight gain/loss (body weights were measured daily during the 5-day treatment and thrice weekly after treatment), eye/hair matting and any other abnormal effect. Death and observed clinical signs were recorded on the basis of the numbers of animals within each subset. Tumor volumes were measured daily during the 5-day treatment and thrice weekly after treatment in two dimensions using a caliper, and the volume was expressed in mm3 using the formula: V=0.5 a×b2 where a and b are the long and short diameters of the tumor, respectively. The entire procedures of dosing as well as tumor and body weight measurement were conducted in a Laminar Flow Cabinet. Individual mice were euthanized by cervical dislocation when the tumor size reached 1400-1600 mm3. The surrogate endpoint for survival was calculated and indicated as TVx4 (initial tumor volume times 4). Statistical analysis of difference in tumor volume among the groups was conducted at the end of experiment using Independent-Samples T Test. All data were analyzed in SPSS (Statistical Product and Service Solutions) version 18.0 (IBM, Armonk, NY, U.S.). P-values were rounded to three decimal places, with the exception that raw P-values less than 0.001 were stated as P<0.001. All tests were two-sided. P<0.05 was considered to be statistically significant.
For the MDA-MB-436 tumor (ATCC: HTB-130; Passage: P4) cells were maintained in vitro as a monolayer culture in L-15 medium supplemented with 10% heat inactivated fetal bovine serum at 37° C. in an atmosphere of 100% air. For NCI-H69 (ATCC: HTB-119; Passage: P3), tumor cells were maintained in vitro in RPMI1640 medium supplemented with 10% fetal bovine serum at 370C in an atmosphere of 5% CO2 in air. For PANC-1 (ATCC: CRL-1469; Passage: P2) tumor cells were maintained in vitro as a monolayer culture in DMEM medium supplemented with 10% heat inactivated fetal bovine serum at 37 °C in an atmosphere of 5% CO2 in air. The tumor cells were routinely sub-cultured twice weekly by trypsin-EDTA treatment. The cells growing in an exponential growth phase were harvested and counted for tumor inoculation. Each mouse was inoculated with 1×10^7 tumor cells (orthotopically at the right mammary fat pad for MDA-MB-436 model, or subcutaneously at the right flank region for both NCI-H69 model and PANC-1 model) in 0.1 ml of PBS mixed with Matrigel (1:1, Corning, #354234) for tumor development. […]

[1] = preliminary toxicology study, intravenous administration; format: in vivo, dog
Protocol: Preliminary toxicology studies of the intravenous administration of Cpd.11 Ms in rats and dogs according to a dosing regimen consisting of 3 consecutive days of administration in a 3 weekly cycle (QDx3/cycle) have shown that potential haematological toxicity in tissues such as the bone marrow, the thymus and lymph nodes (known to have hypoxic niches) can be minimized at dosages at or below 400 mg/kg in the rat and at or below 100 mg/kg in the dog. As such, these levels correspond to 2360 mg/m^2 and 2000 mg/m^2, respectively, in human subjects. […] Alternative dosing regimens also include weekly administration for up to 3 or 4 consecutive times of each 3 or 4 weekly cycle. In addition, also an initial dose of QDx3 or QDx5 could be combined with less frequent administration schedules that may still allow a therapeutic effect over tumor growth and development, such as up to 3 or 4 weekly dosages in 3 to 4 weekly cycles, or once a month (or every three-four weeks) schedules that be applied with or without the parallel treatment with the appropriate standard-of-care protocols.

Structure (SMILES): CCN1CCN(C(=O)c2cc(N(CCBr)CCOS(C)(=O)=O)c(S(C)(=O)=O)cc2[N+](=O)[O-])CC1.CS(=O)(=O)O [Cpd.11 Ms, 4-(5-((2-bromoethyl) (2-((methylsulfonyl)oxy)ethyl)amino)-4-(methylsulfonyl)-2-nitrobenzoyl)-1-ethylpiperazin-1-ium methanesulfonate]
- Anti-tumor effect (NCI-H69 tumor xenograft; single treatment cycle, listed as Cpd.11Ms): Strong impact,
- Anti-tumor effect (NCI-H69 tumor xenograft; single treatment cycle): significant regression of the tumours
- therapeutic response with alternative regimens (NCI-H69 tumor xenograft; repeated administration over 3 weeks): longer term tumor control
- effects on body weight (NCI-H69 tumor xenograft; single treatment cycle, IP): absence of effects on body weight
- median surrogate survival index (TVx4) in comparison to vehicle treated animals (NCI-H69 tumor xenograft; single treatment cycle, IP): doubled
- dosage at which potential haematological toxicity (bone marrow, thymus, lymph nodes) can be minimized ([1]; dog, intravenous, QDx3 in a 3 weekly cycle): ≤ 100 mg/kg
- corresponding level in human subjects of the dog dosage ([1]; from 100 mg/kg in the dog): 2000 mg/m^2

From patent US12708620B2, “Prodrugs and medical uses thereof” (priority 2018, dated 2026)
